Earlier results as cited in patent US20050113418A1, “Administration of pharmaceuticals” (priority 1996, published 2005).

Conditions: Lind et al, Gut 1983

COc1ccc2[nH]c([S+]([O-])Cc3ncc(C)c(OC)c3C)nc2c1 (stereo not shown) [Omeprazole, omeprazole]
plasma half-life: 30 to 60 min
